The values that follow are results of earlier work, collected in US20080020059A1, “COMPOSITIONS AND METHODS FOR TOPICAL TREATMENT OF SKIN INFECTION” (CHIOU CONSULTING, INC., priority 2003, published 2008).

The data set concerns acne. Conditions: after 12 weeks of treatment.

As for `CC[C@H]1OC(=O)[C@H](C)[C@@H](O[C@H]2C[C@@](C)(OC)[C@@H](O)[C@H](C)O2)[C@H](C)[C@@H](O[C@@H]2O[C@H](C)C[C@H](N(C)C)[C@H]2O)[C@](C)(O)C[C@@H](C)C(=O)[C@H](C)[C@@H](O)[C@]1(C)O` [erythromycin], the “patients showing satisfactory responses” value is given as “about 50%”.
